Results: patent publication US7820817B2, “Modulators of muscarinic receptors” (Vertex Pharmaceuticals Incorporated, priority 2004, dated 2010)

System: at least one muscarinic receptor, M1, M2, M3, M4
Test: Muscarinic modulation activity (Table 3)
Type: cell-based
Set-up: key: +++: exhibited muscarinic modulation activity for at least one muscarinic receptor, M1, M2, M3, M4, at a concentration of less than 5 μM; ++: exhibited muscarinic modulation activity for at least one muscarinic receptor, M1, M2, M3, M4, at a concentration of between 30 μM and 5 μM; +: exhibited muscarinic modulation activity for at least one muscarinic receptor, M1, M2, M3, M4, at a concentration of greater than 30 μM; −: were not assayed or did not exhibit muscarinic modulation activity for at least one muscarinic receptor, M1, M2, M3, M4, at the concentration at which the assay was performed
Conditions: concentration at which modulation of at least one muscarinic receptor, M1, M2, M3, M4, was exhibited; CHO cells
Method in brief: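 CHO cells expressing M1–M5 loaded with Fluo-3 AM or Calcium 3 dye plus 1 mM probenecid; FLIPR fluorescence read for 60 sec after compound addition (agonist mode) or after 15 min pre-incubation then carbachol at EC80 (inhibition mode); 0.5% DMSO final.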

SMILES: c1ccc(N2CCN(C3CC4CCC3C4)CC2)nc1 (centres unmarked) [Compound 65, 1-norbornan-2-yl-4-(2-pyridyl)piperazine]
- ACTIVITY (muscarinic modulation activity): ++ (exhibited muscarinic modulation activity for at least one muscarinic receptor, M1, M2, M3, M4, at a concentration of between 30 μM and 5 μM)

SMILES: CCOC(=O)N1C2CCC1CC(N1CCN(c3ccc(C#N)cn3)CC1)C2 (centres unmarked) [Compound 66, 3-[4-(5-cyano-2-pyridyl)piperazin-1-yl]-8-azabicyclo[3.2.1]octane-8-carboxylic acid ethyl ester]
- ACTIVITY (muscarinic modulation activity): +++ (exhibited muscarinic modulation activity for at least one muscarinic receptor, M1, M2, M3, M4, at a concentration of less than 5 μM)

SMILES: CCOC(=O)N1C2CCC1CC(N1CCN(c3ncc(CC)cn3)CC1)C2 (centres unmarked) [Compound 67, 3-[4-(5-ethylpyrimidin-2-yl)piperazin-1-yl]-8-azabicyclo[3.2.1]octane-8-carboxylic acid ethyl ester]
- ACTIVITY (muscarinic modulation activity): +++ (exhibited muscarinic modulation activity for at least one muscarinic receptor, M1, M2, M3, M4, at a concentration of less than 5 μM)

SMILES: CCOC(=O)N1C2CCC1CC(CN1CCN(c3ncccc3C#N)CC1)C2 (centres unmarked) [Compound 68, 3-[[4-(3-cyano-2-pyridyl)piperazin-1-yl]methyl]-8-azabicyclo[3.2.1]octane-8-carboxylic acid ethyl ester]
- ACTIVITY (muscarinic modulation activity): +++ (exhibited muscarinic modulation activity for at least one muscarinic receptor, M1, M2, M3, M4, at a concentration of less than 5 μM)

SMILES: FC(F)(F)c1cccnc1N1CCN(CC2CC3C=CC2C3)CC1 (centres unmarked) [Compound 69, 1-(5-bicyclo[2.2.1]hept-2-enylmethyl)-4-[3-(trifluoromethyl)-2-pyridyl]-piperazine]
- ACTIVITY (muscarinic modulation activity): +++ (exhibited muscarinic modulation activity for at least one muscarinic receptor, M1, M2, M3, M4, at a concentration of less than 5 μM)

SMILES: N#Cc1nccnc1N1CCN(CC2CC3C=CC2C3)CC1 (centres unmarked) [Compound 70, 3-[4-(5-bicyclo[2.2.1]hept-2-enylmethyl)piperazin-1-yl]pyrazine-2-carbonitrile]
- ACTIVITY (muscarinic modulation activity): +++ (exhibited muscarinic modulation activity for at least one muscarinic receptor, M1, M2, M3, M4, at a concentration of less than 5 μM)

SMILES: c1cnc(N2CCN(C3CC4CCC3C4)CC2)nc1 (centres unmarked) [Compound 71, 2-(4-norbornan-2-ylpiperazin-1-yl)pyrimidine]
- ACTIVITY (muscarinic modulation activity): ++ (exhibited muscarinic modulation activity for at least one muscarinic receptor, M1, M2, M3, M4, at a concentration of between 30 μM and 5 μM)

SMILES: Cc1cc(C)nc(N2CCN(C3CC4CCC3C4)CC2)n1 (centres unmarked) [Compound 72, 4,6-dimethyl-2-(4-norbornan-2-ylpiperazin-1-yl)-pyrimidine]
- ACTIVITY (muscarinic modulation activity): −

SMILES: Cc1nc(N2CCN(CC3CC4CCC3C4)CC2)c(C#N)cc1-c1ccccc1 (centres unmarked) [Compound 73, 6-methyl-2-[4-(norbornan-2-ylmethyl)piperazin-1-yl]-5-phenyl-nicotinonitrile]
- ACTIVITY (muscarinic modulation activity): −

SMILES: FC(F)(F)c1cnc(N2CCN(CC3CC4C=CC3C4)CC2)c(Cl)c1 (centres unmarked) [Compound 74, 1-(5-bicyclo[2.2.1]hept-2-enylmethyl)-4-[3-chloro-5-(trifluoromethyl)-2-pyridyl]-piperazine]
- ACTIVITY (muscarinic modulation activity): −

SMILES: c1cc(N2CCN(C3C4CC5CC(C4)CC3C5)CC2)ccn1 (centres unmarked) [Compound 75, 1-(2-adamantyl)-4-(4-pyridyl)piperazine]
- ACTIVITY (muscarinic modulation activity): ++ (exhibited muscarinic modulation activity for at least one muscarinic receptor, M1, M2, M3, M4, at a concentration of between 30 μM and 5 μM)

SMILES: C1=CC2CC1CC2CN1CCN(c2ncccn2)CC1 (centres unmarked) [Compound 76, 2-[4-(5-bicyclo[2.2.1]hept-2-enylmethyl)piperazin-1-yl]pyrimidine]
- ACTIVITY (muscarinic modulation activity): +++ (exhibited muscarinic modulation activity for at least one muscarinic receptor, M1, M2, M3, M4, at a concentration of less than 5 μM)

SMILES: Cc1cccc(N2CCN(C3CC4CCC3C4)CC2)n1 (centres unmarked) [Compound 77, 1-(6-methyl-2-pyridyl)-4-norbornan-2-yl-piperazine]
- ACTIVITY (muscarinic modulation activity): −

SMILES: CCOC(=O)N1C2CCC1CC(N1CCN(c3nc(C)cc(C)c3C#N)CC1)C2 (centres unmarked) [Compound 78, 3-[4-(3-cyano-4,6-dimethyl-2-pyridyl)piperazin-1-yl]-8-azabicyclo[3.2.1]octane-8-carboxylic acid ethyl ester]
- ACTIVITY (muscarinic modulation activity): ++ (exhibited muscarinic modulation activity for at least one muscarinic receptor, M1, M2, M3, M4, at a concentration of between 30 μM and 5 μM)
